Source: patent publication US5602106A, “16-membered macrolide derivatives” (priority 1993, dated 1997)
Values after ≈ are worked out from the molar mass of the structure shown. Where two headings read alike, the source gives them in different places.

How the values were obtained:
Type in all cases: cell-based
[1] = system: S. aureus MS15026; test: MIC, agar plate dilution method; conditions: Staphylococcus aureus, 37° C., 20 hours, SDA with 5% horse blood, read-out: Antimicrobial activity (MIC)
Method: (§1) The effect of the first aspect of the present invention resides in the creation of a novel and useful 16-membered macrolide derivative. Antimicrobial activities of the compounds of the present invention were determined by measuring minimum inhibitory concentration (MIC). Minimum inhibitory concentration was determined by the agar plate dilution method in the following manner.
(§2) Test strains were subjected to seed culture using Sensitivity test broth (STB, Nissui Pharmaceutical) except that the strains belonging to the genus Streptococcus, Branhamella and Haemophilus were cultured on blood agar plate. A 5 μl portion of cell suspension of the test strains having about 10^6 CFU/ml was inoculated into Sensitivity disk agar (SDA, Nissui Pharmaceutical) supplemented with 5% horse blood and incubated at 37° C. for 20 hours. Then, MIC was measured. […] Antimicrobial activities in vitro of the compounds (1) and (2) are shown in Table 1, and those of the compounds (3) and (4) in Table 3.

[2] = system: S. aureus MS15009/pMS99; test: MIC, agar plate dilution method; conditions: Staphylococcus aureus, MS15009/PMS99, 20 h, read-out: Antimicrobial activity (MIC)
Method: as §1, §2

[3] = system: E. coli NIHJ JC-2; test: MIC, agar plate dilution method; conditions: 37° C., SDA with 5% horse blood; for MIC: Escherichia coli, NIHJJC2, 20 h, read-out: Antimicrobial activity (MIC)
Method: as §1, §2

[4] = system: S. epidermidis ATCC14990; test: MIC, agar plate dilution method; conditions: Staphylococcus epidermidis, ATCC14990, 20 h, read-out: Antimicrobial activity (MIC), 37° C., 20 hours, SDA with 5% horse blood
Method: as §1, §2

[5] = system: B. catarrhalis W-0500; test: MIC, agar plate dilution method; conditions: Moraxella catarrhalis
Method: as §1, §2

[6] = system: S. aureus 209P JC-1; test: MIC, agar plate dilution method; conditions: for MIC: Staphylococcus aureus, 209P, 20 h
Method: as §1, §2

[7] = system: S. aureus MS15009/pMS98; test: MIC, agar plate dilution method; conditions: Staphylococcus aureus, MS15009/PMS98, 20 h, read-out: Antimicrobial activity (MIC), 37° C., 20 hours, SDA with 5% horse blood
Method: as §1, §2

[8] = system: H. influenzae Type b; test: MIC, agar plate dilution method; conditions: Haemophilus influenzae, 20 h, read-out: Antimicrobial activity (MIC), 37° C., 20 hours, SDA with 5% horse blood
Method: as §1, §2

[9] = system: K. pneumoniae PCI602; test: MIC, agar plate dilution method; conditions: 37° C., SDA with 5% horse blood; for MIC: Klebsiella pneumoniae, PCI602, 20 h, read-out: Antimicrobial activity (MIC)
Method: as §1, §2

[10] = system: S. aureus M126; test: MIC, agar plate dilution method; conditions: Staphylococcus aureus, 37° C., 20 hours, SDA with 5% horse blood, read-out: Antimicrobial activity (MIC)
Method: as §1, §2

[11] = system: S. pneumoniae Type 1; test: MIC, agar plate dilution method; conditions: Streptococcus pneumoniae, TYPE1; 37° C., 20 hours, SDA with 5% horse blood; read-out: Antimicrobial activity (MIC)
Method: as §1, §2

[12] = system: E. faecalis W-73; test: MIC, agar plate dilution method; conditions: Enterococcus faecalis, W73, 20 h, read-out: Antimicrobial activity (MIC)
Method: as §1, §2

[13] = system: S. pneumoniae IP692; test: MIC, agar plate dilution method; conditions: Streptococcus pneumoniae, IP692, 20 h
Method: as §1, §2

[14] = system: S. pyogenes Cook; test: MIC, agar plate dilution method; conditions: Streptococcus pyogenes
Method: as §1, §2

[15] = system: M. luteus ATCC9341; test: MIC, agar plate dilution method; conditions: Micrococcus luteus, ATCC9341; 37° C., 20 hours, SDA with 5% horse blood; read-out: Antimicrobial activity (MIC)
Method: as §1, §2

[16] = system: H. influenzae 9334; test: MIC, agar plate dilution method
Method: as §1, §2

[17] = system: B. catarrhalis W-0506; test: MIC, agar plate dilution method; conditions: for MIC: Moraxella catarrhalis
Method: as §1, §2

[18] = system: B. catarrhalis W-0400; test: MIC, agar plate dilution method; conditions: Moraxella catarrhalis, W0400, 20 h, read-out: Antimicrobial activity (MIC)
Method: as §1, §2

[19] = system: S. aureus MS15027; test: MIC, agar plate dilution method; conditions: Staphylococcus aureus
Method: as §1, §2

[20] = system: test strains; test: Antimicrobial activity in vitro, test strains overall
Method: as §1, §2

[21] = system: clinically important Gram-positive bacteria; test: Antimicrobial activity / growth inhibition
Method: as §1, §2

[22] = system: S. aureus M133; test: MIC, agar plate dilution method; conditions: Staphylococcus aureus, M133, 20 h, read-out: Antimicrobial activity (MIC), 37° C., 20 hours, SDA with 5% horse blood
Method: as §1, §2

[23] = W0500, 20 h, read-out: Antimicrobial activity (MIC), 37° C., 20 hours, SDA with 5% horse blood
[24] = 37° C., 20 hours, SDA with 5% horse blood
[25] = 37° C., 20 hours, SDA with 5% horse blood, read-out: Antimicrobial activity (MIC)
[26] = W0506, 20 h, read-out: Antimicrobial activity (MIC), 37° C., 20 hours, SDA with 5% horse blood
[27] = MS15027, 20 h, read-out: Antimicrobial activity (MIC), 37° C., 20 hours, SDA with 5% horse blood
[28] = read-out: Antimicrobial activity (MIC), 37° C., 20 hours, SDA with 5% horse blood

SMILES | MIC [1] [µg/mL] | MIC [2] [µg/mL] | MIC [3] [µg/mL] | MIC [4] [µg/mL] | MIC [5, 23] [µg/mL] | MIC [6, 25] [µg/mL] | MIC [7] [µg/mL] | MIC [8] [µg/mL] | MIC [9] [µg/mL] | MIC [10] [µg/mL] | MIC [11] [µg/mL] | MIC [12] [µg/mL] | MIC [13, 25] [µg/mL] | MIC [14, 25] [µg/mL] | MIC [15] [µg/mL] | MIC [17, 26] [µg/mL] | MIC [19, 27] [µg/mL] | antimicrobial activities (in words) [21] | MIC [22] [µg/mL] | also measured
CC[C@H]1OC(=O)[C@H](C)[C@@H](O[C@H]2C[C@@](C)(OC)[C@@H](O)[C@H](C)O2)[C@H](C)[C@@H](O[C@@H]2O[C@H](C)C[C@H](N(C)C)[C@H]2O)[C@](C)(OC)C[C@@H](C)C(=O)[C@H](C)[C@@H](O)[C@]1(C)O [CAM, clarithromycin, reference compound] | > 100 | > 100 | 100 (≈ 134 µM) | 0.1 (≈ 0.134 µM) | 0.2 (≈ 0.267 µM) | 0.05 (≈ 0.0668 µM) | > 100 | 6.25 (≈ 8.36 µM) | 100 (≈ 134 µM) | > 100 | < 0.025 | 0.78 (≈ 1.04 µM) | < 0.025 | < 0.025 | < 0.025 | 0.2 (≈ 0.267 µM) | > 100 |  |  | Antimicrobial activity (MIC) ([3]; 20 hours): 50 µg/mL; Antimicrobial activity (MIC) [6, 24]: 0.10 µg/mL; Antimicrobial activity (MIC) ([9]; 20 hours): 50 µg/mL; MIC ([16]; Haemophilus influenzae, 9334, 37° C., 20 hours, SDA with 5% horse blood, read-out: Antimicrobial activity (MIC)): 1.56 µg/mL (≈ 2.09 µM); Antimicrobial activity (MIC) [17, 24]: 0.10 µg/mL; MIC [18]: 0.1 µg/mL (≈ 0.134 µM); MIC ([19]; MS15027, 37° C., 20 hours, SDA with 5% horse blood, read-out: Antimicrobial activity (MIC)): 1.56 µg/mL (≈ 2.09 µM)
CO[C@@H]1[C@@H](O[C@@H]2O[C@H](C)[C@@H](O[C@H]3C[C@@](C)(OC)[C@@H](OC(=O)C(C)C)[C@H](C)O3)[C@H](N(C)C)[C@H]2O)[C@@H](CC=O)C[C@@H](C)[C@@H](O)/C=C/C=C/C[C@@H](C)OC(=O)C[C@H]1O [(53), 4"-O-isobutyryl-3"-Omethylleucomycin V] | > 100 | > 100 | > 100 | 0.2 (≈ 0.254 µM) | 0.2 (≈ 0.254 µM) | 0.05 (≈ 0.0636 µM) | 0.2 (≈ 0.254 µM) | 6.25 (≈ 7.95 µM) | > 100 | > 100 | < 0.025 | 0.78 (≈ 0.992 µM) | < 0.025 | < 0.025 | < 0.025 | 0.2 (≈ 0.254 µM) | 0.2 (≈ 0.254 µM) | markedly strong microbial activities | 0.2 (≈ 0.254 µM) | antimicrobial activities compared with compound (58) ([20]; vs compound (58)): slightly superior antimicrobial activities; antimicrobial activities in comparison with rokitamycin ([20]; vs rokitamycin): markedly excellent antimicrobial activities; MIC ([16]; Haemophilus influenzae, 9334, 20 h, read-out: Antimicrobial activity (MIC), 37° C., 20 hours, SDA with 5% horse blood): 0.39 µg/mL (≈ 0.496 µM)
CO[C@@H]1[C@@H](O[C@@H]2O[C@H](C)[C@@H](O[C@H]3C[C@@](C)(OC)[C@@H](O)[C@H](C)O3)[C@H](N(C)C)[C@H]2O)[C@@H](CC=O)C[C@@H](C)[C@@H](O)/C=C/C=C/C[C@@H](C)OC(=O)C[C@H]1O [(4), 3"-O-methylleucomycin V] | > 100 | > 100 | > 100 | 0.78 (≈ 1.09 µM) |  |  | 0.39 (≈ 0.545 µM) | 12.5 (≈ 17.5 µM) | > 100 | > 100 | 0.05 (≈ 0.0698 µM) | 0.78 (≈ 1.09 µM) |  |  | 0.05 (≈ 0.0698 µM) |  | 0.78 (≈ 1.09 µM) | strong antimicrobial activities | 0.78 (≈ 1.09 µM) | improvement of MIC values over corresponding compounds with free 3"-hydroxyl (midecamycin M1, leucomycin V) ([20]; most of the test strains): improved two to three times; MIC ([5]; W0500, 37° C., 20 hours, SDA with 5% horse blood, read-out: Antimicrobial activity (MIC)): 1.56 µg/mL (≈ 2.18 µM); MIC [6, 28]: 0.39 µg/mL (≈ 0.545 µM); MIC [13, 28]: 0.1 µg/mL (≈ 0.14 µM); MIC ([14]; 20 h, read-out: Antimicrobial activity (MIC), 37° C., 20 hours, SDA with 5% horse blood): 0.1 µg/mL (≈ 0.14 µM); MIC ([17]; W0506, 37° C., 20 hours, SDA with 5% horse blood, read-out: Antimicrobial activity (MIC)): 1.56 µg/mL (≈ 2.18 µM)
